Data on five compounds can be found in ChEMBL document CHEMBL1201862, “PubChem BioAssay data set” (2004).

Calls of active or inactive are those of the source.

Experiment [1] in a line: Late stage assay provider results from the probe development effort to identify inhibitors of the Plasmodium falciparum M18 Aspartyl Aminopeptidase (M18AAP): radiolabel-based cell-based dose response assay to identify compounds that inhibit P. falciparum growth in RBCs, Set 2.. It is filed as functional.
In the next experiment the target is Paired box protein Pax-8 (Homo sapiens, UniProt Q06710). As to the kind of experiment: inhibitors of PAX8-driven TPO luciferase reporter, dose response, RMG-I cells, cherry-pick (AID 687027).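 Also: luciferase reporter driven by Pax8 target thyroperoxidase promoter measured by SteadyGlo luminescence.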 It is filed as functional, cell-based. (In general: In a reporter assay the amount or activity of a reporter protein is the signal.)
Paired box protein Pax-8, sequence (Q06710 whole entry): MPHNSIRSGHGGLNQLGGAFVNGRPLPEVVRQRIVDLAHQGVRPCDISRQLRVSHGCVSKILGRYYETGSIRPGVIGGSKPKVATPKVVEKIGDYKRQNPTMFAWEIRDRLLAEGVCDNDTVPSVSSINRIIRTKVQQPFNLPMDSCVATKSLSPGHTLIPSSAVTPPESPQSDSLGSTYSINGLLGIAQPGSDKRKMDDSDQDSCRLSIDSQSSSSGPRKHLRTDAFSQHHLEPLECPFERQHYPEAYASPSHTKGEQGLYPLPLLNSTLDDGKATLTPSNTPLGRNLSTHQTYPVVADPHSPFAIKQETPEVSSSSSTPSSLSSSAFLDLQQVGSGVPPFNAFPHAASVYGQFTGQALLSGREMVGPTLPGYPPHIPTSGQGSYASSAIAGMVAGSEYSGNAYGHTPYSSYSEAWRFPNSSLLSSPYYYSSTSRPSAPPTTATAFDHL
The nature of experiment [2]: PAX2 cell-based inhibition, dose response, selectivity assay for PAX8 inhibitor project, plate reader, dry powder samples (AID 743048).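 Also: HEK293 cells carrying a WT1 promoter luciferase reporter driven by expressed Pax2; potency is for inhibition of Pax2 driven reporter signal.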 It is filed as functional.
Experiment [3] can be described thus: cytotoxicity in COV362 ovarian cancer cells, dose response, cytotoxicity control for PAX8 inhibitor project, cell-based, plate reader, dry powder, SA12 (AID 743144). It is filed as functional.
The nature of experiment [4]: IOSE-T80 ovarian epithelial cell cytotoxicity, dose response, cytotoxicity control for PAX8 inhibitor project, plate reader, dry powder samples (AID 743045). It is filed as functional, cell-based.
Experiment [5] can be described thus: NIH:OVCAR-3 ovarian cancer cell cytotoxicity, dose response, PAX8 inhibitor project, plate reader, dry powder samples (AID 743044). It is filed as functional, cell-based.
Experiment [6] is described as follows: PAX5 activity inhibitors, dose response, selectivity assay for PAX8 inhibitor project, cell-based, plate reader, dry powder samples (AID 743047).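 Also: HEK293 cells carrying a Pax5 driven CD19 promoter luciferase reporter; potency of inhibitors that lower reporter luminescence.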 It is filed as functional.
Experiment [7] in a line: IGROV1 ovarian cancer cell cytotoxicity, dose response, PAX8 inhibitor project, plate reader, dry powder samples (AID 743043). As to conditions: IGROV-1. The experiment is classed as functional, cell-based.
Experiment [8] is described as follows: cytotoxicity in OVCAR4 cells, dose response, cytotoxicity control for PAX8 inhibitor project, cell-based, plate reader, dry powder, SA11 (AID 743150). As to conditions: OVCAR-4. It is filed as functional.
The nature of experiment [9]: cytotoxicity in COV434 cells, dose response, cytotoxicity control for PAX8 inhibitor project, cell-based, plate reader, dry powder, SA7 (AID 743145). The experiment is classed as functional.
A short description of experiment [10]: cytotoxicity in OV-90 ovarian cancer cells, dose response, PAX8 inhibitor project, cell-based, plate reader, dry powder, SA8 (AID 743149). It is filed as functional.
Experiment [11] is described as follows: cytotoxicity dependent on PAX8, dose response, cell-based, plate reader, dry powder (AID 743049). The experiment is classed as functional.
Experiment [12] has as its target Potassium channel subfamily K member 9 (Homo sapiens, UniProt Q9NPC2). Nature of the experiment: TASK3 (KCNK9) channel inhibitors, thallium flux, SAR follow-up, selectivity assay for TASK1 inhibitor project, cell-based, FluxOR thallium flux, concentration-response (AID 652211).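 Also: potency is for inhibitors of the channel.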 It is filed as functional.
Experiment [13] concerns the target Potassium channel subfamily K member 3 (Homo sapiens, UniProt O14649). As to the kind of experiment: TASK1 (KCNK3) potassium channel inhibitors, SAR follow-up, CHO cells, FluxOR thallium flux (AID 652212). The experiment is classed as functional.
The target in experiment [14] is NAD-dependent protein deacylase sirtuin-5, mitochondrial (Homo sapiens, UniProt Q9NXA8). As to the kind of experiment: SIRT5 desuccinylase inhibitors, dose response, biochemical, fluorescence imaging, cherry-pick, set 5 (AID 720591).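 Also: desuccinylation of succinyl peptide AMC substrate read as fluorescence after trypsin release; potency of inhibitors that lower fluorescence and may act on trypsin instead.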
NAD-dependent protein deacylase sirtuin-5, mitochondrial, sequence (Q9NXA8 whole entry): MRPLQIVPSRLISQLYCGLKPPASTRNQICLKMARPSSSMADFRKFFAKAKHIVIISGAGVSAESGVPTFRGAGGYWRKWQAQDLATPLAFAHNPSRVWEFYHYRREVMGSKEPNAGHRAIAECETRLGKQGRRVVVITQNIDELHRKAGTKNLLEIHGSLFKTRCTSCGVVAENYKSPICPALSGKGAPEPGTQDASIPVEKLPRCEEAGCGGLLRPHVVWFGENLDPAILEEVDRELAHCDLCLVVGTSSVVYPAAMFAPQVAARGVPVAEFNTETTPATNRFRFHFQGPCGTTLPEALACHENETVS
Experiment [15] deals with C-X-C chemokine receptor type 4 (Homo sapiens, UniProt P61073). As to the kind of experiment: SAR analysis of small molecule antagonists of the CXCR6 receptor using a CXCR4 receptor luminescent beta-arrestin counterscreen. It is filed as functional. (The purpose of a counterscreen is to sort out artefacts and off-target activity.)
C-X-C chemokine receptor type 4, sequence (P61073 whole entry): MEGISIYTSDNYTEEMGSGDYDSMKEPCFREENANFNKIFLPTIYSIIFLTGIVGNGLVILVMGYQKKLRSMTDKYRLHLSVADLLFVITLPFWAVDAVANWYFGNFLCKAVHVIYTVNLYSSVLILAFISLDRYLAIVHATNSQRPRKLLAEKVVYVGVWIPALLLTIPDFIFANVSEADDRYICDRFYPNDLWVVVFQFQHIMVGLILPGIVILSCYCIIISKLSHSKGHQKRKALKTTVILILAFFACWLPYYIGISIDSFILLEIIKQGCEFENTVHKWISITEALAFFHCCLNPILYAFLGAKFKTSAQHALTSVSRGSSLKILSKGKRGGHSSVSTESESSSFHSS
Experiment [16] addresses T1, C-C chemokine receptor type 6 (Homo sapiens, UniProt P51684).
T1 sequence (P51684 whole entry): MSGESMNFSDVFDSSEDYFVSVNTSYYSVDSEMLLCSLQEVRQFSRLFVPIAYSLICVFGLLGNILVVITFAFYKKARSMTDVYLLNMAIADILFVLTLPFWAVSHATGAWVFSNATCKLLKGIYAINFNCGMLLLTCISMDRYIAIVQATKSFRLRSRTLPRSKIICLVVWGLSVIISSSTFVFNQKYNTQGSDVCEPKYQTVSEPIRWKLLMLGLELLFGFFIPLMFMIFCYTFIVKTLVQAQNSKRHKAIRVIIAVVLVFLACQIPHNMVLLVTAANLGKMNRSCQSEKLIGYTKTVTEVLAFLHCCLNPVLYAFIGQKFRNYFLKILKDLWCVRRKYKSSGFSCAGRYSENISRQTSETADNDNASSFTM
As to the kind of experiment: SAR analysis of small molecule antagonists of the CXCR6 receptor using a CCR6 receptor luminescent beta-arrestin counterscreen. The experiment is classed as functional.

Potassium channel subfamily K member 3, sequence (O14649 whole entry): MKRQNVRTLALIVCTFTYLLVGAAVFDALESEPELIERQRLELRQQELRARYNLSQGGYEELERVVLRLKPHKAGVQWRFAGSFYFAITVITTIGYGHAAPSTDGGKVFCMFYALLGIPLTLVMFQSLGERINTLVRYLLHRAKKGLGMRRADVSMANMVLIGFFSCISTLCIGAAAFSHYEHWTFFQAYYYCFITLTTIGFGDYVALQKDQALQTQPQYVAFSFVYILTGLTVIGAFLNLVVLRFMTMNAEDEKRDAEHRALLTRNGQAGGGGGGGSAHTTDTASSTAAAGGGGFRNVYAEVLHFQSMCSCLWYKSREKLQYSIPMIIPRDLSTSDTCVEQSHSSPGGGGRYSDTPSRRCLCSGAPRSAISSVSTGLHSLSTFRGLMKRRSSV
Potassium channel subfamily K member 9, sequence (Q9NPC2 whole entry): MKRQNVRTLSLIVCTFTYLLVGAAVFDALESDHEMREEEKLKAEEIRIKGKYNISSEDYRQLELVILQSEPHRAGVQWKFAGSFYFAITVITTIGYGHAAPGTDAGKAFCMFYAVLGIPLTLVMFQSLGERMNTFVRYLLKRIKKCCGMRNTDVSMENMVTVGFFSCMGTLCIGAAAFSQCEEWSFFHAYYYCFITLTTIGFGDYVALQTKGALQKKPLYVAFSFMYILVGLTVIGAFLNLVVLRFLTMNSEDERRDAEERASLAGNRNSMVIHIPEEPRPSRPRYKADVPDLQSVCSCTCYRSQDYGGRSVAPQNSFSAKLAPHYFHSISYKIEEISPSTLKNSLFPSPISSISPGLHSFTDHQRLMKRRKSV

A word on the IC50: it is the concentration at which inhibition is half-maximal. `Oc1ccc(CCN2CCc3ccccc3C2)cc1O`: in [1], the IC50 is 7.9 µM (active).
As a reminder, the AC50 is the concentration at which the activity in the assay is half-maximal. For `N#C[C@H]1[C@@H](c2ccc(C#Cc3ccc(F)cc3)cc2)[C@H](CO)N1C(=O)Nc1ccc(F)cc1`, the concentration at half-maximal activity (AC50) on Paired box protein Pax-8 is 12.3 µM (active); in [2], 14.1 µM (active); in experiment [3], 19.6 µM (active); in experiment [4], 44.7 µM (active); in [5], 23.5 µM (active); in experiment [6], 14 µM (active). The AC50 was 30.1 µM (active) in experiment [7]; 19.2 µM (active) in experiment [8]; 20.5 µM (active) in [9]; 21.1 µM (active) in [10]; 13.2 µM (active) in experiment [11].
As for `Cc1cccc(C(=O)Nc2cccc(NC(=O)c3ccccc3OCC(C)C)c2)c1`, the 50% inhibitory concentration (IC50) was 3.39 µM (active) in experiment [12] and 0.206 µM (active) in experiment [13].
For `O=C(O)CCNc1nc(-c2ccccc2)nc2ccccc12`, in [14], the AC50 is 5.41 µM (active).
As to `COc1cc(C(=O)NC2CC3CCCC(C2)N3CC(=O)Nc2ccc(C)cc2)cc(OC)c1OC` (configuration not stated), the IC50 in experiment [15] and in [16] was > 79 µM (inactive) each time.
